Data reported in patent US10172921B2, “Method of treating an inflammatory bowel disease comprising agonists of orexin-1 receptor” (INSERM (INSTITUT NATIONAL DE LA SANTÉ ET DE LA RECHERCHE …, priority 2014, dated 2019).

What was measured:
EXCY2 mice = assay: Spontaneous UC-like colitis in EXCY2 mice (IL10-/-; Nox1-/-): DAI, colon histology, stress pathways; type: in vivo; conditions: for DAI score: OxA 0.22 μmoles/kg intraperitoneal or 5-ASA 0.053 g/kg oral, scale 0 (no symptoms) to 4 (severe colitis), untreated mice 4, FIG. 7; for severe colitis: 10 week-old EXCY2 mice, 2 IP/week during 3 weeks
Source text: FIG. 4: Histological aspect of colon mucosa in OxA treated mice (right) and non-treated mice (left)
FIG. 7: OXA better improves the DAI (weight and colitis score) of EXCY2 mice that the gold standard 5-aminosalicylic acid (5-ASA) treatment. Mice were intraperitoneal injected or not with OxA (0.22 μmoles/kg) or orally treated with 5-ASA (0.053 g/kg). DAI score including the weight loss, severity of diarrhea, the presence of blood in the stool, inflammation and edema was estimated using a scale ranging from 0 (no symptoms) to 4 (severe colitis).
DSS mouse model has been extensively used to decipher the mucosal inflammation in IBD, UC pathogenesis, and preclinical studies. However, mice show differential susceptibilities and responsiveness to DSS-induced colitis depending on their genetic background, gender. DSS model is a faithful model of inflammation but departs from Ulcerative Colitis in part for lack of the inflammation gradient from the rectum to the proximal colon usually observed in UC, any deregulation of ER stress in goblet cells known to be an early etiological factor of UC, and no digestive or extra-digestive complications of UC such as cholangitis and colorectal cancer, respectively. The use of genetically modified mice model represents a good alternative to chemically-induced colitis mice model. The recent development of a new spontaneous UC-like mouse model (EXCY2 mice, WO/2012/140516) consisting of a double KO of IL10 and Nox1 (IL10^−/−; Nox1^−/−) is ideally suited to study the OxA effect on spontaneous colitis. Indeed, EXCY2 mice 1) develop a spontaneous colitis at 6/7 weeks of age with an upwards gradient from the rectum and reproduce all molecular characteristics seen in UC including, loss of goblet cells, deregulation of ER stress, protective effect of tobacco; 2) spontaneously colonic cancer at 8 months of age (35-40% of mice); 3) develop mild cholangitis.
(§1) In contrast, the secretion of anti-inflammatory cytokine IL10 was unchanged (FIG. 6).
The treatment of EXCY2 mice with 5-ASA reduced the DAI score as compared to untreated mice, i.e. 3 vs 4, respectively.

[1] = test system: cytokines secretion in EXCY2 mice; assay: Cytokine secretion in colons of EXCY2 mice (Cytokine CBA kits); type: in vivo; conditions: OxA 0.22 μmoles/kg, FIG. 6
Description: FIG. 6: OXA effects on cytokines secretion in EXCY2 mice. Colons of EXCY2 mice from untreated mice (white) and treated with OxA (0.22 μmoles/kg) treatment (black) were resected after animal sacrifice. Then, protein extraction was performed by tissue disruption. Cytokines were determined using Cytokine CBA kits (see Material and Methods).
as §1

Caco2 cells = assay: Oxidative stress and ER stress pathways in Caco2 cells; type: cell-based
DSS-induced colitis mice = assay: DSS-induced colitis in mice: Disease Activity Index and colon histology; type: in vivo
Source text: FIG. 2: OXA ameliorates the DAI (weight and colitis score) of DSS-induced colitis mice. Mice were orally treated with 5% DSS for 7 days.
FIG. 5: OXA ameliorates the DAI (weight and colitis score) of DSS-induced colitis mice. Mice were orally treated with 5% DSS for 7 days in the presence or in the absence of daily intraperitoneal injection of OxA (0.22 μmoles/kg). DAI score including weight loss, severity of diarrhea, the presence of blood in the stool, inflammation and edema was estimated using a scale ranging from 0 (no symptoms) to 4 (severe colitis). DSS, dextran sulfate sodium; WT, wild type mice.
Based on these observations, we have investigated the effect of Orexin A (OxA) on acute inflammation in mice treated with Dextran Sulfate Sodium (DSS). OxA was preferentially chosen in these experiments since the presence of two disulphide bridges confers it more stability. DSS induces acute colitis characterized by weight loss, bloody diarrhea, intestinal ulcerations and infiltrations with granulocytes.
(§2) These observations are confirmed by histologic aspect of colon epithelium (histologic scoring by a GI pathologist). Thus, OxA has probably an anti-inflammatory effect on DSS-induced colitis. To confirm this hypothesis, we have investigated the anti-inflammatory effect of OxA treatment on cytokines secretion in colon extracts from DSS-treated mice. […] In contrast, OxA has no effect on INFγ, IL10, and IL12 cytokine secretion in colon extracts (FIG. 3).
As shown in FIG. 5 when DSS-induced colitis mice were treated with OxA, the DAI score was ameliorated (about of 1.5).

[2] = test system: cytokines secretion in colon extracts from DSS-treated mice; assay: Cytokine secretion in colon extracts of DSS-induced colitis mice; type: in vivo; conditions: FIG. 3
Source text: FIG. 3: OXA effects on cytokines secretion in DSS-induced colitis mice
as §2

[3] = colon extracts of DSS-induced colitis mice
[4] = colon extracts of DSS-treated mice

## Nc1ccc(O)c(C(=O)O)c1 [5-ASA, 5-aminosalicylic acid, reference compound]
EXCY2 mice; EXCY2 mice
  DAI score: 3

## Orexin-A (XPLPDCCRQKTCSCRLYELLHGAGNHAAGILTLX; not fully specified; two disulphide bridges; MOD_RES (1)..(1) PYRROLIDONE CARBOXYLIC ACID; (34)..(34) Xaa can be any naturally occurring amino acid; listed as Homo sapiens) [OxA]
[1]
  IFNγ secretion: strong reduction
  IL6 secretion: strong reduction
  IL10 secretion: unchanged
  IL12 secretion: strong reduction
  MCP1 secretion: strong reduction
  TNFα secretion: strong reduction
EXCY2 mice; 0.22 μmoles/kg OxA
  severe colitis: alleviated
EXCY2 mice; 1 μM OxA
  severe colitis: alleviated
EXCY2 mice; EXCY2 mice
  deregulated pathways involved in the onset of colitis (oxidative stress and ER stress): induced
  DAI score: 1.5
EXCY2 mice; OxA-treated vs vehicle treated EXCY2 mice, FIG. 4
  colonic mucosa (general crypts aspect, crypt size, presence of goblet cells, absence of immune cells infiltration): normal colonic mucosa
Caco2 cells
  deregulated pathways involved in the onset of colitis (oxidative stress and ER stress): induced
DSS-induced colitis mice; 5% DSS orally 7 days, daily intraperitoneal OxA 0.22 μmoles/kg, scale 0 (no symptoms) to 4 (severe colitis), FIG. 5, printed as 'ameliorated (about of 1.5)'
  DAI score: ~1.5
DSS-induced colitis mice; DSS-treated mice, histologic scoring by a GI pathologist
  histologic aspect of colon epithelium: ameliorates
DSS-induced colitis mice; orally DSS-treated mice (5% DSS for 7 days), FIG. 2
  Disease Activity Index (DAI) scored by measuring weight, length of colon, diarrhea and the presence of blood in the stool: ameliorates
[2]; [3]
  IL1B secretion: reduces
  IL6 secretion: reduces
  IL8 homolog secretion: reduces
  TNFα secretion: reduces
[2]; [4]
  IL10 cytokine secretion: no effect
  IL12 cytokine secretion: no effect
  INFγ cytokine secretion: no effect
